Where two headings read alike, the source gives them in different places.
Legend:
[1] = target: T1, ALK (Homo sapiens, UniProt Q9UM73); experiment: ALK Kinase Assay (ELISA/TRF, PLC-γ substrate); format: biochemical; details: read-out: ALK Potency
T1 construct: host or cells: baculovirus expression system
Method in brief: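 First, plates are coated with substrate (phospholipase C-γ, 10 μg/mL, TBS). Next, 30 ng/ml ALK initiates phosphorylation for 15 min at 37° C. Then Eu-N1 PT66 antibody is added for detection, and a nonlinear dose-response fit of percent inhibition yields IC50.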

[2] = target: T2, JAK2 (Homo sapiens, UniProt O60674); experiment: Recombinant Human JAK2 Kinase Assay (TRF); format: biochemical; details: read-out: JAK2 Potency
T2 construct: host or cells: baculovirus expression system
T2 sequence (O60674 whole entry): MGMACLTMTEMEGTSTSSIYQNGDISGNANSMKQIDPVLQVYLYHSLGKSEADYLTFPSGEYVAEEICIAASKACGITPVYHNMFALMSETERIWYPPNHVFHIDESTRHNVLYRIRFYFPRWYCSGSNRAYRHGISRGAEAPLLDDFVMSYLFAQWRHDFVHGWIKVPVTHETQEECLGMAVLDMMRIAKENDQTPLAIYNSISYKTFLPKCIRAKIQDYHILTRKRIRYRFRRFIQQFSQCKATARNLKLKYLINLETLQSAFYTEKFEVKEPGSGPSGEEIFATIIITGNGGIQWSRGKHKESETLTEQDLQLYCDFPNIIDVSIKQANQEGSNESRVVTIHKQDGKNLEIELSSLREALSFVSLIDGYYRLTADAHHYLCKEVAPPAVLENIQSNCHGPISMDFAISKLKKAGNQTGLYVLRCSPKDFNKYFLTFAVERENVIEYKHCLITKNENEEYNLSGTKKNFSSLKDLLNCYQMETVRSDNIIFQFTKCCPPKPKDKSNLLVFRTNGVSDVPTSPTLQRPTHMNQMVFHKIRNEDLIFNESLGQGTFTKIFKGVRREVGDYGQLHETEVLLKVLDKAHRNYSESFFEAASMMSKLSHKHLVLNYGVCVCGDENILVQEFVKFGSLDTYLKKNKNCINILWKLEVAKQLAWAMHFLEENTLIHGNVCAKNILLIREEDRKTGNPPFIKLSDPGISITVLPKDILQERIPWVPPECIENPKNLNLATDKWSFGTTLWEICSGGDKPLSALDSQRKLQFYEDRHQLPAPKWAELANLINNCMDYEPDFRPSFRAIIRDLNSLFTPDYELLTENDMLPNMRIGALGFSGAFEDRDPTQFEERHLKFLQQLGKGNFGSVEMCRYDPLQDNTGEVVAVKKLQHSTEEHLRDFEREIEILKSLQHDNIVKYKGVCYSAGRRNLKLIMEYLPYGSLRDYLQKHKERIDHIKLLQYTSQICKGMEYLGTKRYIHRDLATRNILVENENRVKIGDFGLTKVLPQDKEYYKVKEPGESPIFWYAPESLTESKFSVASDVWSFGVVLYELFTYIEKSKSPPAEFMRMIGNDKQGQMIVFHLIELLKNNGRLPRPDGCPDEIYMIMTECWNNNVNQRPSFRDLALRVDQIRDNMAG
Method in brief: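 Baculovirus-expressed JAK2 (15 ng/ml) phosphorylated a biotinylated 15-mer peptide captured on Neutravidin-coated plates, in 20 mM HEPES pH 7.2 with 0.2 μM ATP, 1 mM MnCl2, 0.1% BSA and 2.5% DMSO. Reaction ran 20 min at room temperature; phosphopeptide was detected by time-resolved fluorescence with Eu-N1-labelled PY100 antibody.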

[3] = ALK kinase inhibition, 1 μM ATP
[4] = JAK2 kinase inhibition, 0.2 μM ATP

T1 sequence (Q9UM73 19-1620): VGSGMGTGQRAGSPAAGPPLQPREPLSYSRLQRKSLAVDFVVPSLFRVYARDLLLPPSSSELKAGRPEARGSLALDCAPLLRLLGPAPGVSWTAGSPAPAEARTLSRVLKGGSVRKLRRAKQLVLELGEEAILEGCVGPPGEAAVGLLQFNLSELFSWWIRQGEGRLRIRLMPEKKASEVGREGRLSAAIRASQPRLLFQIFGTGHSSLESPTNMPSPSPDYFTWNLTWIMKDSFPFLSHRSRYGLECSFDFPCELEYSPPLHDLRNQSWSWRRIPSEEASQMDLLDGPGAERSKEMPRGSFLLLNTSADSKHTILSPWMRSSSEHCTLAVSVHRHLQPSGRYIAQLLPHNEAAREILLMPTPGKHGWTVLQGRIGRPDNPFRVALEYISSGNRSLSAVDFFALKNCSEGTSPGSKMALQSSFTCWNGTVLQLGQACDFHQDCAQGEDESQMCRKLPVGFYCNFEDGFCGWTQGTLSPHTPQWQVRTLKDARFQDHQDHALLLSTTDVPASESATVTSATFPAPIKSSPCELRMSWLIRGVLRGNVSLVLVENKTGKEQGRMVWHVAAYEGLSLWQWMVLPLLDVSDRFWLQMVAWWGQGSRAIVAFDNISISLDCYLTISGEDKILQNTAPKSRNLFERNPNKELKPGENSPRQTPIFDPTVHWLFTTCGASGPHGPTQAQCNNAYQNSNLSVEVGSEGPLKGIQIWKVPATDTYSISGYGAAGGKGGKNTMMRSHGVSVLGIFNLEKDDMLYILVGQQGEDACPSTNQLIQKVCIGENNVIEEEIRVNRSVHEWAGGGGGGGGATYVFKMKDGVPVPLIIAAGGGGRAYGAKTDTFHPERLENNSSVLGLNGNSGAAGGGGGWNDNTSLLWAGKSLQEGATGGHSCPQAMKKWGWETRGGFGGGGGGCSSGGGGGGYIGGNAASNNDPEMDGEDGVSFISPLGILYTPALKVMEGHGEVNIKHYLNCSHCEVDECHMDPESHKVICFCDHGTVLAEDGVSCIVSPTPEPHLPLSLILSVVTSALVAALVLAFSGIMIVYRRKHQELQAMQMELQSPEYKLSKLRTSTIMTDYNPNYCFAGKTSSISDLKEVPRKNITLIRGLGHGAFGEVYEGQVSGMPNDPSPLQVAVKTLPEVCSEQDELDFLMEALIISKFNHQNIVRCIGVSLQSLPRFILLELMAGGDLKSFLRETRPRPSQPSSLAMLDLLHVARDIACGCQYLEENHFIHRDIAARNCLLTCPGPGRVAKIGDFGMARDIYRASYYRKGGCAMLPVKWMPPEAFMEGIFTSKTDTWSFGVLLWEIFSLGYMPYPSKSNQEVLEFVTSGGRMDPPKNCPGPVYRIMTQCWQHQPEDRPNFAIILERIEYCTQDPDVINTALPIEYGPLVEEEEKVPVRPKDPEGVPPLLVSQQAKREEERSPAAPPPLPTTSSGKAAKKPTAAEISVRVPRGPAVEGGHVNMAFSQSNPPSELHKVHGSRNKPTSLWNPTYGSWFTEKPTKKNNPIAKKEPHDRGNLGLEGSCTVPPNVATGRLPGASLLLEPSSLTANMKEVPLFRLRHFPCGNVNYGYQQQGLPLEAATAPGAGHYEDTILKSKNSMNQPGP

IC50 ([1]; ALK Kinase Inhibition) [µM]	IC50 ([2]; JAK2 Kinase Inhibition) [µM]	IC50 [1, 3] [µM]	IC50 [2, 4] [µM]	Compound
< 0.1	< 0.1			C[C@H](O)CN1CCN(c2ccc(Nc3ncc4ccc(-c5cccc(S(=O)(=O)NC(C)(C)C)c5)n4n3)cc2)CC1 [Example 427, N-tert-Butyl-3-(2-{4-[4-((S)-2-hydroxy-propyl)-piperazin-1-yl]-phenylamino}-pyrrolo[2,1-f][1,2,4]triazin-7-yl)-benzenesulfonamide]
		< 0.1	< 0.1	COc1ccccc1-c1ccc2cnc(Nc3ccc(N4CCN(C)CC4)cc3Cl)nn12 [Example 508, [2-Chloro-4-(4-methyl-piperazin-1-yl)-phenyl]-[7-(2-methoxy-phenyl)-pyrrolo[2,1-f][1,2,4]triazin-2-yl]-amine]
		1 to 10	< 0.1	CN(c1ccccc1-c1ccc2cnc(Nc3cccnc3)nn12)S(C)(=O)=O [Example 1361, N-Methyl-N-{2-[2-(pyridin-3-ylamino)-pyrrolo[2,1-f][1,2,4]triazin-7-yl]-phenyl}-methanesulfonamide]
		1 to 10	< 0.1	COc1ccc(-c2ccc3cnc(Nc4ccc(-c5csnn5)cc4)nn23)cn1 [Example 909, [7-(6-Methoxy-pyridin-3-yl)-pyrrolo[2,1-f][1,2,4]triazin-2-yl]-(4-[1,2,3]thiadiazol-4-yl-phenyl)-amine]
		< 0.1	0.1 to 1	COc1cc(C2CCN(C[C@@H](C)O)CC2)ccc1Nc1ncc2ccc(-c3ccccc3N(C)S(C)(=O)=O)n2n1 [Example 788, N-[2-(2-{4-[1-((R)-2-Hydroxy-propyl)-piperidin-4-yl]-2-methoxy-phenylamino}-pyrrolo[2,1-f][1,2,4]triazin-7-yl)-phenyl]-N-methyl-methanesulfonamide]
1 to 10	< 0.1			CS(=O)(=O)c1ccc(-c2ccc3cnc(Nc4ccc5[nH]c(CN6CCN(CCO)CC6)nc5c4)nn23)cc1 [Example 1543, 2-(4-{5-[7-(4-Methanesulfonyl-phenyl)-pyrrolo[2,1-f][1,2,4]triazin-2-ylamino]-1H-benzimidazol-2-ylmethyl}-piperazin-1-yl)-ethanol]
0.1 to 1	< 0.1			CS(=O)(=O)Nc1cccc(-c2ccc3cnc(Nc4cccc(N5CCOCC5)c4)nn23)c1 [Example 183, N-{3-[2-(3-Morpholin-4-yl-phenylamino)-pyrrolo[2,1-f][1,2,4]triazin-7-yl]-phenyl}-methanesulfonamide]
> 10	0.1 to 1			COc1ccccc1-c1ccn2nc(Nc3ccc(N4CCN(C)CC4)cc3)ncc12 [Example 42, [5-(2-Methoxy-phenyl)-pyrrolo[2,1-f][1,2,4]triazin-2-yl]-[4-(4-methyl-piperazin-1-yl)-phenyl]-amine]
		< 0.1	< 0.1	COc1ccccc1-c1ccc2cnc(Nc3ccc(OCCN4CCOCC4)cc3)nn12 [Example 1101, [7-(2-Methoxy-phenyl)-pyrrolo[2,1-f][1,2,4]triazin-2-yl]-[4-(2-morpholin-4-yl-ethoxy)-phenyl]-amine]
		< 0.1	0.1 to 1	COc1cc(CN2CCN(C(=O)CNC(=O)OC(C)(C)C)CC2)ccc1Nc1ncc2ccc(-c3ccccc3N(C)S(C)(=O)=O)n2n1 [Example 1239, {2-[4-(4-{7-[2-(Methanesulfonyl-methyl-amino)-phenyl]-pyrrolo[2,1-f][1,2,4]triazin-2-ylamino}-3-methoxy-benzyl)-piperazin-1-yl]-2-oxo-ethyl}-carbamic acid tert-butyl ester]
0.1 to 1	< 0.1			COc1ccc(OC)c(-c2ccc3cnc(Nc4ccc(N5CCN(C)CC5)cc4)nn23)c1 [Example 425, [7-(2,5-Dimethoxy-phenyl)-pyrrolo[2,1-f][1,2,4]triazin-2-yl]-[4-(4-methyl-piperazin-1-yl)-phenyl]-amine]
		1 to 10	< 0.1	CC(=O)Nc1cccc(Nc2ncc3ccc(-c4cccc(NS(C)(=O)=O)c4)n3n2)c1 [Example 1363, N-{3-[7-(3-Methanesulfonylamino-phenyl)-pyrrolo[2,1-f][1,2,4]triazin-2-ylamino]-phenyl}-acetamide]
		0.1 to 1	< 0.1	CC(C)(C)NS(=O)(=O)c1cccc(-c2ccc3cnc(Nc4ccc(C5CCC(N6CCOCC6)CC5)cc4)nn23)c1 (stereo not shown) [Example 565, N-tert-Butyl-3-{2-[4-(4-morpholin-4-yl-cyclohexyl)-phenylamino]-pyrrolo[2,1-f][1,2,4]triazin-7-yl}-benzenesulfonamide]
		< 0.1	< 0.1	COc1cc(Nc2ncc3ccc(-c4cccc(S(=O)(=O)NC(C)(C)C)c4)n3n2)ccc1C1CCN(CC(N)=O)CC1 [Example 924, 2-(4-{4-[7-(3-tert-Butylsulfamoyl-phenyl)-pyrrolo[2,1-f][1,2,4]triazin-2-ylamino]-2-methoxy-phenyl}-piperidin-1-yl)-acetamide]
		0.1 to 1	< 0.1	COc1ccccc1-c1ccc2cnc(Nc3ccn(CCN4CCOCC4)n3)nn12 [Example 1183, [7-(2-Methoxy-phenyl)-pyrrolo[2,1-f][1,2,4]triazin-2-yl]-[1-(2-morpholin-4-yl-ethyl)-1H-pyrazol-3-yl]-amine]
1 to 10	< 0.1			CS(=O)(=O)c1ccc(-c2ccc3cnc(Nc4cccc(N5CCOCC5)c4)nn23)cc1 [Example 163, [7-(4-Methanesulfonyl-phenyl)-pyrrolo[2,1-f][1,2,4]triazin-2-yl]-(3-morpholin-4-yl-phenyl)-amine]
0.1 to 1	< 0.1			COc1ccc(Cl)cc1-c1ccc2cnc(Nc3ccc(C(C)(C)C)c(NC(C)=O)c3)nn12 [Example 306, N-{2-tert-Butyl-5-[7-(5-chloro-2-methoxy-phenyl)-pyrrolo[2,1-f][1,2,4]triazin-2-ylamino]-phenyl}-acetamide]
		0.1 to 1	< 0.1	CN1CCN(c2ccc(Nc3ncc4ccc(-c5cccc(CN(C)S(C)(=O)=O)c5)n4n3)cc2)CC1 [Example 1048, N-Methyl-N-(3-{2-[4-(4-methyl-piperazin-1-yl)-phenylamino]-pyrrolo[2,1-f][1,2,4]triazin-7-yl}-benzyl)-methanesulfonamide]
		1 to 10	0.1 to 1	COc1ccccc1-c1cc2cnc(Nc3ccc(N4CCN(C)CC4)cc3)nn2c1 [Example 1156, [6-(2-Methoxy-phenyl)-pyrrolo[2,1-f][1,2,4]triazin-2-yl]-[4-(4-methyl-piperazin-1-yl)-phenyl]-amine]
		> 10	< 0.1	CN1CCN(C)C(c2cccc(Nc3ncc4ccc(-c5cccc(S(=O)(=O)N6CCOCC6)c5)n4n3)c2)C1=O (stereo not shown) [Example 1078, 1,4-Dimethyl-3-(3-{7-[3-(morpholine-4-sulfonyl)-phenyl]-pyrrolo[2,1-f][1,2,4]triazin-2-ylamino}-phenyl)-piperazin-2-one]
		< 0.1	< 0.1	CN(c1ccccc1-c1ccc2cnc(Nc3ccc4c(c3)CCCC(=O)N4)nn12)S(C)(=O)=O [Example 623, N-Methyl-N-{2-[2-(2-oxo-2,3,4,5-tetrahydro-1H-benzo[b]azepin-7-ylamino)-pyrrolo[2,1-f][1,2,4]triazin-7-yl]-phenyl}-methanesulfonamide]
< 0.1	< 0.1			COc1cc(N2CCC(N3CCOCC3)CC2)ccc1Nc1ncc2ccc(-c3ccccc3OC(F)(F)F)n2n1 [Example 1455, [2-Methoxy-4-(4-morpholin-4-yl-piperidin-1-yl)-phenyl]-[7-(2-trifluoromethoxy-phenyl)-pyrrolo[2,1-f][1,2,4]triazin-2-yl]-amine]
		1 to 10	< 0.1	CS(=O)(=O)N1CC=C(c2ccc3cnc(Nc4ccc(N5CCOCC5)cc4)nn23)CC1 [Example 1129, [7-(1-Methanesulfonyl-1,2,3,6-tetrahydro-pyridin-4-yl)-pyrrolo[2,1-f][1,2,4]triazin-2-yl]-(4-morpholin-4-yl-phenyl)-amine]
< 0.1	< 0.1			CN1CCN(c2cccc(Nc3ncc4ccc(-c5cccc(CO)c5)n4n3)c2)CC1 [Example 1557, (3-{2-[3-(4-Methyl-piperazin-1-yl)-phenylamino]-pyrrolo[2,1-f][1,2,4]triazin-7-yl}-phenyl)-methanol]
		< 0.1	< 0.1	COc1cc(N2CCC(NCCO)CC2)ccc1Nc1ncc2ccc(-c3ccccc3OC)n2n1 [Example 797, 2-(1-{3-Methoxy-4-[7-(2-methoxy-phenyl)-pyrrolo[2,1-f][1,2,4]triazin-2-ylamino]-phenyl}-piperidin-4-ylamino)-ethanol]
> 10	1 to 10			c1ccc(-c2ccc3cnc(NCCCN4CCOCC4)nn23)cc1 [Example 29, (3-Morpholin-4-yl-propyl)-(7-phenyl-pyrrolo[2,1-f][1,2,4]triazin-2-yl)-amine]

Compound	IC50 ([1]; ALK Kinase Inhibition) [µM]	IC50 ([2]; JAK2 Kinase Inhibition) [µM]	IC50 [1, 3] [µM]	IC50 [2, 4] [µM]
COc1ccccc1-c1ccc2cnc(Nc3ccc4c(c3)N3CCC4CC3)nn12 [Example 764, (3,4-Dihydro-2H-1,4-ethano-quinolin-7-yl)-[7-(2-methoxy-phenyl)-pyrrolo[2,1-f][1,2,4]triazin-2-yl]-amine]			< 0.1	< 0.1
CN1CCN(c2ccc(Nc3ncc4ccc(-c5ccccc5S(=O)(=O)NC(C)(C)C)n4n3)cc2)CC1 [Example 411]	< 0.1	< 0.1		
CC(C)(C)NS(=O)(=O)c1cccc(-c2ccc3cnc(Nc4ccc5c(c4)CS(=O)(=O)C5)nn23)c1 [Example 663, N-tert-Butyl-3-[2-(2,2-dioxo-2,3-dihydro-1H-2$1(6)-benzo[c]thiophen-5-ylamino)-pyrrolo[2,1-f][1,2,4]triazin-7-yl]-benzenesulfonamide]			0.1 to 1	< 0.1
